Measurements taken from ChEMBL document CHEMBL1914295, “Synthesis and biological evaluation of some novel triazol-3-ones as antimicrobial agents” (2011).

Assays:
Assay type in all cases: functional
Settings in all cases: read-out: IZ
Staphylococcus aureus [1] = experiment: Antibacterial activity against Staphylococcus aureus at 200 ug/ml after 24 hrs by disc diffusion method
Escherichia coli [2] = experiment: Antibacterial activity against Escherichia coli at 200 ug/ml after 24 hrs by disc diffusion method
Fusarium solani [3] = experiment: Antifungal activity against Fusarium solani at 200 ug/ml after 48 hrs by disc diffusion method
Aspergillus niger [4] = experiment: Antifungal activity against Aspergillus niger at 100 ug/ml after 48 hrs by disc diffusion method
Staphylococcus aureus [5] = experiment: Antibacterial activity against Staphylococcus aureus at 100 ug/ml after 24 hrs by disc diffusion method
Klebsiella pneumoniae [6] = experiment: Antibacterial activity against Klebsiella pneumoniae at 200 ug/ml after 24 hrs by disc diffusion method
Aspergillus niger [7] = experiment: Antifungal activity against Aspergillus niger at 200 ug/ml after 48 hrs by disc diffusion method
Klebsiella pneumoniae [8] = experiment: Antibacterial activity against Klebsiella pneumoniae at 100 ug/ml after 24 hrs by disc diffusion method
Bacillus subtilis [9] = experiment: Antibacterial activity against Bacillus subtilis at 100 ug/ml after 24 hrs by disc diffusion method
Bacillus subtilis [10] = experiment: Antibacterial activity against Bacillus subtilis at 200 ug/ml after 24 hrs by disc diffusion method
Escherichia coli [11] = experiment: Antibacterial activity against Escherichia coli at 100 ug/ml after 24 hrs by disc diffusion method
Candida albicans [12] = experiment: Antifungal activity against Candida albicans at 200 ug/ml after 48 hrs by disc diffusion method
Fusarium solani [13] = experiment: Antifungal activity against Fusarium solani at 100 ug/ml after 48 hrs by disc diffusion method
Candida albicans [14] = experiment: Antifungal activity against Candida albicans at 100 ug/ml after 48 hrs by disc diffusion method

Row | Structure (SMILES) | zone of inhibition at 200 µg/mL (Staphylococcus aureus [1]) [mm] | zone of inhibition at 200 µg/mL (Escherichia coli [2]) [mm] | zone of inhibition at 200 µg/mL (Fusarium solani [3]) [mm] | zone of inhibition at 100 µg/mL (Aspergillus niger [4]) [mm] | zone of inhibition at 100 µg/mL (Staphylococcus aureus [5]) [mm] | zone of inhibition at 200 µg/mL (Klebsiella pneumoniae [6]) [mm] | zone of inhibition at 200 µg/mL (Aspergillus niger [7]) [mm] | zone of inhibition at 100 µg/mL (Klebsiella pneumoniae [8]) [mm] | zone of inhibition at 100 µg/mL (Bacillus subtilis [9]) [mm] | zone of inhibition at 200 µg/mL (Bacillus subtilis [10]) [mm] | zone of inhibition at 100 µg/mL (Escherichia coli [11]) [mm] | zone of inhibition at 200 µg/mL (Candida albicans [12]) [mm] | zone of inhibition at 100 µg/mL (Fusarium solani [13]) [mm] | zone of inhibition at 100 µg/mL (Candida albicans [14]) [mm]
1 | O=c1[nH]ncn1-c1nc(-c2ccsc2)cs1 | 28 | 26 | 37 | 34 | 25 | 26 | 39 | 22 | 27 | 29 | 24 | 38 | 32 | 35
2 | Cn1ncn(-c2nc(-c3ccsc3)cs2)c1=O | 35 | 25 | 43 | 39 | 32 | 28 | 42 | 26 | 34 | 36 | 23 | 40 | 40 | 36
3 | CCn1ncn(-c2nc(-c3ccsc3)cs2)c1=O | 32 | 29 | 32 | 21 | 24 | 28 | 24 | 26 | 21 | 27 | 23 | 29 | 29 | 23
4 | CC(C)n1ncn(-c2nc(-c3ccsc3)cs2)c1=O | 27 | 24 | 29 | 30 | 25 | 29 | 33 | 26 | 20 | 23 | 22 | 24 | 27 | 22
5 | CC(C)Cn1ncn(-c2nc(-c3ccsc3)cs2)c1=O | 20 | 21 | 30 | 26 | 16 | 18 | 27 | 15 | 16 | 18 | 17 | 21 | 26 | 17
6 | N#CCn1ncn(-c2nc(-c3ccsc3)cs2)c1=O | 31 | 29 | 34 | 27 | 28 | 21 | 29 | 16 | 23 | 26 | 26 | 32 | 28 | 28
7 | COCCCn1ncn(-c2nc(-c3ccsc3)cs2)c1=O | 26 | 28 | 36 | 26 | 24 | 28 | 28 | 25 | 23 | 26 | 24 | 28 | 34 | 24
8 | CC1Sc2sccc2-c2nc(-n3cn[nH]c3=O)sc21 (configuration not stated) | 21 | 20 | 24 | 26 | 18 | 20 | 29 | 17 | 20 | 23 | 15 | 28 | 22 | 25
